Source: ChEMBL document CHEMBL1201862, “PubChem BioAssay data set” (2004)
Where “and” joins values, the source holds several entries; their conditions need not be identical. Equal values may be shown once.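 The compound was tested at five concentrations on cells cultured in 96-well plates, with a 48-hour exposure period. GI50: concentration for 50% inhibition of growth.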 Calls of active or inactive are those of the source. Cut-off read from the data, not from the text of the source: active = GI50 up to about 1.1 µM and inactive = higher.

Columns and labels:
Experiment in all cases: NCI tumour cell line growth inhibition, 48 h
786-0 = system: 786-0
A549 = system: A549
ACHN = system: ACHN
CAKI-1 = system: CAKI-1
DU-145 = system: DU-145
HCT-15 = system: HCT-15
HOP-62 = system: HOP-62
HOP-92 = system: HOP-92
Hs-578T = system: Hs-578T
IGROV-1 = system: IGROV-1
K562 = system: K562
NCI-H226 = system: NCI-H226
NCI-H460 = system: NCI-H460
NCI/ADR-RES = system: NCI/ADR-RES
RXF 393 = system: RXF 393
SF-268 = system: SF-268
SNB-19 = system: SNB-19
SNB-75 = system: SNB-75
U-251 = system: U-251
A498 = system: A498
BT-549 = system: BT-549
CCRF-CEM = system: CCRF-CEM
COLO 205 = system: COLO 205
EKVX = system: EKVX
HCT-116 = system: HCT-116
HL-60 = system: HL-60
HT-29 = system: HT-29
KM12 = system: KM12
LOX IMVI = system: LOX IMVI
M14 = system: M14
MCF7 = system: MCF7
MDA-MB-231 = system: MDA-MB-231
MDA-MB-435 = system: MDA-MB-435
MOLT-4 = system: MOLT-4
Malme-3M = system: Malme-3M
NCI-H23 = system: NCI-H23
NCI-H522 = system: NCI-H522
OVCAR-3 = system: OVCAR-3
OVCAR-4 = system: OVCAR-4
OVCAR-5 = system: OVCAR-5
SF-295 = system: SF-295
SF-539 = system: SF-539
SK-MEL-28 = system: SK-MEL-28
SK-MEL-2 = system: SK-MEL-2
SK-MEL-5 = system: SK-MEL-5
SK-OV-3 = system: SK-OV-3
SN12C = system: SN12C
SR = system: SR
SW-620 = system: SW-620
T47D = system: T47D
UACC-257 = system: UACC-257
UACC-62 = system: UACC-62
UO-31 = system: UO-31
HCC 2998 = system: HCC 2998
OVCAR-8 = system: OVCAR-8
PC-3 = system: PC-3
RPMI-8226 = system: RPMI-8226
TK-10 = system: TK-10

With `CC(=O)OCC1OC(n2c(S)c(C#N)c(-c3ccccc3)c(C#N)c2=O)C(OC(C)=O)C(OC(C)=O)C1OC(C)=O` (stereo not given) the GI50 (786-0) was 30 µM (inactive) and 33.9 µM (inactive), the GI50 (A549) was > 100 µM (inactive) and the GI50 (ACHN) was 54.1 µM (inactive) and 78.5 µM (inactive). For the same molecule, the GI50 (CAKI-1) was 50.8 µM (inactive) and 61.9 µM (inactive), the GI50 (DU-145) was 58.3 µM (inactive) and the GI50 (HCT-15) was > 100 µM. For the same molecule, the GI50 (HOP-62) was 21.7 µM (inactive) and 21.9 µM (inactive), the GI50 (HOP-92) was 31.3 µM (inactive) and 16.6 µM (inactive) and the GI50 (Hs-578T) was 38.8 µM (inactive). The GI50 (IGROV-1) was 53 µM (inactive), the GI50 (K562) was > 100 µM (inactive) and the GI50 (NCI-H226) was > 87.7 µM (inactive). The GI50 (NCI-H460) was 50.2 µM (inactive) and > 88.7 µM (inactive), the GI50 (NCI/ADR-RES) was > 100 µM (inactive) and the GI50 (RXF 393) was 19.5 µM (inactive) and 18.5 µM (inactive). The GI50 (SF-268) was 21.8 µM (inactive) and 33 µM (inactive), the GI50 (SNB-19) was 32.2 µM (inactive) and the GI50 (SNB-75) was 26.2 µM (inactive) and 20.1 µM (inactive). For the same molecule, the GI50 (U-251) was 23.8 µM (inactive) and 35.2 µM (inactive).

With `Cc1cc(C)cc(Nc2nnc3n2S(=O)(=O)c2cc(C#N)c(Cl)cc2S3)c1` the GI50 (786-0) was 2.22 µM (inactive), the GI50 (A498) was 16.3 µM (inactive) and the GI50 (A549) was 16.2 µM (inactive). The GI50 (ACHN) was 3.08 µM (inactive), the GI50 (BT-549) was 2.16 µM (inactive) and the GI50 (CAKI-1) was 3.24 µM (inactive). The GI50 (CCRF-CEM) was 1.07 µM (active), the GI50 (COLO 205) was 10.9 µM (inactive) and the GI50 (DU-145) was 3.14 µM (inactive). For the same molecule, the GI50 (EKVX) was 8.67 µM (inactive), the GI50 (HCT-116) was 2.17 µM (inactive) and the GI50 (HCT-15) was 2.52 µM. The GI50 (HL-60) was 1.68 µM (inactive), the GI50 (HOP-62) was 2.77 µM (inactive) and the GI50 (HT-29) was 1.83 µM (inactive). The GI50 (Hs-578T) was 2.68 µM (inactive), the GI50 (IGROV-1) was 0.505 µM (active) and the GI50 (K562) was 1.47 µM (inactive). The GI50 (KM12) was 1.89 µM (inactive), the GI50 (LOX IMVI) was 2.89 µM (inactive) and the GI50 (M14) was 5.57 µM (inactive). The GI50 (MCF7) was 1.87 µM (inactive), the GI50 (MDA-MB-231) was 3.13 µM (inactive) and the GI50 (MDA-MB-435) was 3.03 µM (inactive). For the same molecule, the GI50 (MOLT-4) was 1.11 µM (active), the GI50 (Malme-3M) was 1.13 µM (inactive) and the GI50 (NCI-H226) was 10.6 µM (inactive). The GI50 (NCI-H23) was 1.77 µM (inactive), the GI50 (NCI-H460) was 3.14 µM (inactive) and the GI50 (NCI-H522) was 1.87 µM (inactive). For the same molecule, the GI50 (NCI/ADR-RES) was 2.44 µM (inactive), the GI50 (OVCAR-3) was 1.57 µM (inactive) and the GI50 (OVCAR-4) was 7.98 µM (inactive). The GI50 (OVCAR-5) was 2.83 µM (inactive), the GI50 (RXF 393) was 1.59 µM (inactive) and the GI50 (SF-268) was 2.2 µM (inactive). The GI50 (SF-295) was 2.84 µM (inactive), the GI50 (SF-539) was 1.89 µM (inactive) and the GI50 (SK-MEL-28) was 3.21 µM (inactive). The GI50 (SK-MEL-2) was 7.53 µM (inactive), the GI50 (SK-MEL-5) was 7.55 µM (inactive) and the GI50 (SK-OV-3) was 6.56 µM (inactive). For the same molecule, the GI50 (SN12C) was 2.59 µM (inactive), the GI50 (SNB-19) was 6.78 µM (inactive) and the GI50 (SNB-75) was 2.32 µM (inactive). The GI50 (SR) was 0.507 µM (active), the GI50 (SW-620) was 2.39 µM (inactive) and the GI50 (T47D) was 3.26 µM (inactive). The GI50 (U-251) was 1.96 µM (inactive), the GI50 (UACC-257) was 1.44 µM (inactive) and the GI50 (UACC-62) was 3.97 µM (inactive). The GI50 (UO-31) was 4.86 µM (inactive).

With `O=C(N=C1N(c2ccccc2)C(=O)C(=O)N1c1ccccc1)c1ccccc1` the GI50 (786-0) was 3.68 µM (inactive), the GI50 (A498) was 18.2 µM (inactive) and the GI50 (A549) was 5.48 µM (inactive). For the same molecule, the GI50 (ACHN) was 3.78 µM (inactive), the GI50 (CAKI-1) was 13.5 µM (inactive) and the GI50 (CCRF-CEM) was 24.8 µM (inactive). For the same molecule, the GI50 (COLO 205) was 13.9 µM (inactive), the GI50 (DU-145) was 6.7 µM (inactive) and the GI50 (EKVX) was 12.7 µM (inactive). The GI50 (HCC 2998) was 8.53 µM (inactive), the GI50 (HCT-116) was 3.99 µM (inactive) and the GI50 (HCT-15) was 9.66 µM. For the same molecule, the GI50 (HL-60) was 31.2 µM (inactive), the GI50 (HOP-62) was 11.5 µM (inactive) and the GI50 (HOP-92) was 2.99 µM (inactive). For the same molecule, the GI50 (HT-29) was 13.7 µM (inactive), the GI50 (Hs-578T) was 4.65 µM (inactive) and the GI50 (IGROV-1) was 10.5 µM (inactive). For the same molecule, the GI50 (K562) was 29.2 µM (inactive), the GI50 (KM12) was 17.3 µM (inactive) and the GI50 (LOX IMVI) was 3.78 µM (inactive). The GI50 (MDA-MB-231) was 6.9 µM (inactive), the GI50 (MDA-MB-435) was 22.9 µM (inactive) and the GI50 (MOLT-4) was 15.5 µM (inactive). For the same molecule, the GI50 (Malme-3M) was 17.4 µM (inactive), the GI50 (NCI-H226) was 12 µM (inactive) and the GI50 (NCI-H23) was 13.6 µM (inactive). The GI50 (NCI-H460) was 11.7 µM (inactive), the GI50 (NCI-H522) was 1.66 µM (inactive) and the GI50 (NCI/ADR-RES) was 11 µM (inactive). The GI50 (OVCAR-4) was 2.95 µM (inactive), the GI50 (OVCAR-5) was 27.5 µM (inactive) and the GI50 (OVCAR-8) was 9.35 µM (inactive). The GI50 (PC-3) was 14.7 µM (inactive), the GI50 (RPMI-8226) was 13.8 µM (inactive) and the GI50 (RXF 393) was 3.58 µM (inactive). The GI50 (SF-268) was 15.1 µM (inactive), the GI50 (SF-295) was 11.3 µM (inactive) and the GI50 (SF-539) was 12.6 µM (inactive). For the same molecule, the GI50 (SK-MEL-28) was 17.5 µM (inactive), the GI50 (SK-MEL-2) was 15.5 µM (inactive) and the GI50 (SK-MEL-5) was 14.9 µM (inactive). For the same molecule, the GI50 (SK-OV-3) was 4.68 µM (inactive), the GI50 (SN12C) was 10.6 µM (inactive) and the GI50 (SNB-19) was 13.3 µM (inactive). For the same molecule, the GI50 (SNB-75) was 11.3 µM (inactive), the GI50 (SR) was 7.46 µM (inactive) and the GI50 (SW-620) was 13.1 µM (inactive). For the same molecule, the GI50 (T47D) was 15.6 µM (inactive), the GI50 (TK-10) was 15.3 µM (inactive) and the GI50 (U-251) was 11.7 µM (inactive). For the same molecule, the GI50 (UACC-257) was 29.9 µM (inactive), the GI50 (UACC-62) was 7.93 µM (inactive) and the GI50 (UO-31) was 14.5 µM (inactive).
